One test has as its target Carbonic anhydrase 1 (Homo sapiens, UniProt P00915). The experiment in a line: Inhibition of human recombinant carbonic anhydrase 1 preincubated for 15 mins by stopped flow CO2 hydration assay.
The target in the next test is Carbonic anhydrase 2 (Homo sapiens, UniProt P00918). In words: Inhibition of human recombinant carbonic anhydrase 2 preincubated for 15 mins by stopped flow CO2 hydration assay.
The next test has as its target Carbonic anhydrase 9 (Homo sapiens, UniProt Q16790).
Another test has as its target Carbonic anhydrase 12 (Homo sapiens, UniProt O43570). The experiment in a line: Inhibition of human recombinant carbonic anhydrase 12 preincubated for 15 mins by stopped flow CO2 hydration assay.

Here are results for 26 molecules from ChEMBL document CHEMBL3758171 (Bioorg Med Chem, 2016).

A value given as a limit tells only on which side of the number the result lay.

Chain of Carbonic anhydrase 1 (P00915 whole entry): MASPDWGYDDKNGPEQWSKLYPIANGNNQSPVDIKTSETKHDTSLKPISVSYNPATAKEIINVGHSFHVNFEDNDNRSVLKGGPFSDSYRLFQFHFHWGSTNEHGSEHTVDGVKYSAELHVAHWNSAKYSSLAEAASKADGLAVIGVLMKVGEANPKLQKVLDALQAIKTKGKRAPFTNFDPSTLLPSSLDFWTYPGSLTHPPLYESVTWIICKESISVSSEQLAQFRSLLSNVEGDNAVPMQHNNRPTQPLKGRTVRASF
Chain of Carbonic anhydrase 12 (O43570 whole entry): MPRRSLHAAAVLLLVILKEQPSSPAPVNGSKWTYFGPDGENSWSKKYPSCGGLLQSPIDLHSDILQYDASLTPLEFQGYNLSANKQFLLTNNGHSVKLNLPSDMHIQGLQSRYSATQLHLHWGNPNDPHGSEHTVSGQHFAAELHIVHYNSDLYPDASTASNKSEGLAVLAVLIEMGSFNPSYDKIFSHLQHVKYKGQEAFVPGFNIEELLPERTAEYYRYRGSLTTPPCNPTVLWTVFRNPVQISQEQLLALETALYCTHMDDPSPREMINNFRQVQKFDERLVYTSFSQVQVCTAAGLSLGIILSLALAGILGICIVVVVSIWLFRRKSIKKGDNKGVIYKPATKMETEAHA

For `O=C1c2ccccc2S(=O)(=O)N1Sc1ccccc1[N+](=O)[O-]`, the Ki was greater than 10000 nM at Carbonic anhydrase 1, greater than 10000 nM at Carbonic anhydrase 2, 18 nM on Carbonic anhydrase 9 and 4 nM at Carbonic anhydrase 12.
For the molecule `O=C1c2ccccc2S(=O)(=O)N1Cc1ccc(Cl)cc1`, the Ki at Carbonic anhydrase 2 was greater than 10000 nM; at Carbonic anhydrase 9 it was 19 nM; on Carbonic anhydrase 12, 4.4 nM.
For `COc1cccc(C(=O)CN2C(=O)C=C(C)OS2(=O)=O)c1`, the Ki is greater than 10000 nM at Carbonic anhydrase 1, greater than 10000 nM at Carbonic anhydrase 2 and 5.6 nM on Carbonic anhydrase 12.
For the molecule `Cc1ccc(CN2C(=O)c3ccccc3S2(=O)=O)cc1`, the Ki on Carbonic anhydrase 1 is greater than 10000 nM; on Carbonic anhydrase 2, greater than 10000 nM; on Carbonic anhydrase 9, 234 nM; at Carbonic anhydrase 12 it was 5.1 nM.
Regarding `Cc1ccccc1CN1C(=O)c2ccccc2S1(=O)=O`, the Ki was 1370 nM at Carbonic anhydrase 1, greater than 10000 nM on Carbonic anhydrase 2, 221 nM at Carbonic anhydrase 9 and 16 nM on Carbonic anhydrase 12.
On to `CC1=CC(OCC(=O)c2ccc(Br)cc2)=NS(=O)(=O)O1`, for which the figures for the Ki at Carbonic anhydrase 2, on Carbonic anhydrase 9 and on Carbonic anhydrase 12 were greater than 10000 nM, 196 nM and 3.6 nM, respectively.
The matching figures for `O=C1c2ccccc2S(=O)(=O)N1Cc1ccc(F)cc1`: greater than 10000 nM, 539 nM and 41 nM.
Consider `CC1=CC(=O)N(Cc2ccc([N+](=O)[O-])cc2)S(=O)(=O)O1`, for which the Ki on Carbonic anhydrase 1 is greater than 10000 nM; on Carbonic anhydrase 2 it was greater than 10000 nM; on Carbonic anhydrase 9 it was 210 nM; on Carbonic anhydrase 12, 4.3 nM.
`Cc1cccc(CN2C(=O)c3ccccc3S2(=O)=O)c1`: the Ki on Carbonic anhydrase 2 is greater than 10000 nM; at Carbonic anhydrase 9, 184 nM; on Carbonic anhydrase 12 it was 26 nM.
`O=C1c2ccccc2S(=O)(=O)N1Cc1ccc(Br)cc1`: the Ki was greater than 10000 nM at Carbonic anhydrase 1, greater than 10000 nM at Carbonic anhydrase 2, 22 nM on Carbonic anhydrase 9 and 4.3 nM at Carbonic anhydrase 12.
Regarding `O=C1c2ccccc2S(=O)(=O)N1Cc1ccc([N+](=O)[O-])cc1`, the values for the Ki on Carbonic anhydrase 2, at Carbonic anhydrase 9 and at Carbonic anhydrase 12 were greater than 10000 nM, 1170 nM and 29 nM, respectively.
Regarding `O=C1NCc2ccccc21`, the Ki on Carbonic anhydrase 1 was greater than 10000 nM; at Carbonic anhydrase 2, greater than 10000 nM; at Carbonic anhydrase 9, 174 nM; at Carbonic anhydrase 12, 4.1 nM.
On to `CC1=CC(=O)N(CC(=O)c2ccc([N+](=O)[O-])cc2)S(=O)(=O)O1`, for which the Ki stood at 1750 nM at Carbonic anhydrase 2, 2480 nM at Carbonic anhydrase 9 and 3.9 nM at Carbonic anhydrase 12.
Taken in the same sequence, the figures for `O=C1c2ccccc2S(=O)(=O)N1Cc1ccccc1C(F)(F)F` were greater than 10000 nM, 616 nM and 15 nM.
Regarding `CC1=CC(=O)N(Cc2ccc(Cl)cc2)S(=O)(=O)O1`, the Ki on Carbonic anhydrase 1 is greater than 10000 nM; at Carbonic anhydrase 2, greater than 10000 nM; on Carbonic anhydrase 9, 239 nM; at Carbonic anhydrase 12, 4.5 nM.
In the case of `CC1=CC(OCC(=O)c2ccc(Cl)cc2Cl)=NS(=O)(=O)O1`, the Ki on Carbonic anhydrase 1 was greater than 10000 nM; on Carbonic anhydrase 2, greater than 10000 nM; on Carbonic anhydrase 9, 265 nM; on Carbonic anhydrase 12, 5.5 nM.
Consider `O=C(O)CN1C(=O)c2ccccc2C1=O`, for which the Ki was greater than 10000 nM at Carbonic anhydrase 1, greater than 10000 nM at Carbonic anhydrase 2, 223 nM on Carbonic anhydrase 9 and 4.3 nM on Carbonic anhydrase 12.
Turning to `CC1=CC(=O)N(CC(=O)c2ccc(C#N)cc2)S(=O)(=O)O1`, the Ki at Carbonic anhydrase 2 amounted to 140 nM; at Carbonic anhydrase 9, 27 nM; on Carbonic anhydrase 12, 4.1 nM.
As for `CC1=CC(=O)N(CC(=O)c2ccc(-c3ccccc3)cc2)S(=O)(=O)O1`, the Ki was greater than 10000 nM at Carbonic anhydrase 1, greater than 10000 nM at Carbonic anhydrase 2, 26 nM at Carbonic anhydrase 9 and 4 nM at Carbonic anhydrase 12.
As for `O=C(CN1C(=O)c2ccccc2S1(=O)=O)c1ccc(F)cc1`, the Ki at Carbonic anhydrase 1 was 1110 nM; on Carbonic anhydrase 2 it was greater than 10000 nM; at Carbonic anhydrase 9, 23 nM; at Carbonic anhydrase 12 it was 41 nM.
Consider `O=C(CN1C(=O)c2ccccc2S1(=O)=O)c1ccc(Cl)cc1Cl`, for which the Ki at Carbonic anhydrase 1 is 1480 nM; on Carbonic anhydrase 2, greater than 10000 nM; at Carbonic anhydrase 9, 191 nM; on Carbonic anhydrase 12 it was 3.9 nM.
As to `O=C(O)CN1C(=O)c2ccccc2S1(=O)=O`, the Ki was 110000 nM on Carbonic anhydrase 1 and 78000 nM on Carbonic anhydrase 2.
In the case of `CC1=CC(=O)N(Cc2ccc(F)cc2)S(=O)(=O)O1`, the Ki at Carbonic anhydrase 1 was greater than 10000 nM; on Carbonic anhydrase 2, greater than 10000 nM; at Carbonic anhydrase 9, 261 nM; at Carbonic anhydrase 12, 4.9 nM.
On to `O=C1c2ccccc2S(=O)(=O)N1Cc1ccc(C(F)(F)F)cc1`, for which the Ki is greater than 10000 nM on Carbonic anhydrase 2, 51 nM on Carbonic anhydrase 9 and 4.7 nM on Carbonic anhydrase 12.
As to `O=C1c2ccccc2S(=O)(=O)N1Cc1cccc(C(F)(F)F)c1`, the Ki at Carbonic anhydrase 1 was greater than 10000 nM; on Carbonic anhydrase 2, greater than 10000 nM; on Carbonic anhydrase 9, 19 nM; on Carbonic anhydrase 12, 17 nM.
`COc1cccc(C(=O)CN2C(=O)c3ccccc3S2(=O)=O)c1`: the Ki was greater than 10000 nM on Carbonic anhydrase 2, 1570 nM at Carbonic anhydrase 9 and 6 nM at Carbonic anhydrase 12.
